Test results: paper PMC9289885, “Antimicrobial Peptides against Multidrug-Resistant Pseudomonas aeruginosa Biofilm from Cystic Fibrosis Patients” (Journal of Medicinal Chemistry, 2022)
Like-named read-outs stand apart in the source and are kept apart here.

Experiments:
[1] = tested on: P. aeruginosa CF patient isolates and PAO1; type: cell-based, Pseudomonas aeruginosa; conditions: PAO1, 24 h
Method: The MIC of the peptides was tested as previously described with minor adjustments.[50],[51] Briefly, peptide activity was examined in sterile 96-well polystyrene plates (Bar-Naor BN36010096D). Overnight cultures of P. aeruginosa were washed and resuspended in a BM2 medium. Aliquots of 50 μL of suspended bacteria (1 × 10^6 CFU/mL) were added to 50 μL of BM2 medium containing peptides in serial 2-fold dilutions (final concentration between 0.78 and 50 μM). Plates were incubated for 24 h at 37 °C while being agitated. Inhibition of growth was assessed by absorbance measurements at OD600 using a microplate auto reader. The MIC was defined as the concentration at which 90% inhibition of growth was observed after incubation for 24 h.

[2] = tested on: P. aeruginosa clinical CF isolates biofilm; type: cell-based, Pseudomonas aeruginosa; conditions: 24 h
Method: The biofilm formation assay was performed as described for the MIC assay with some alterations and used either BM2 or CF patient sputum diluted 10-fold with BM2. Plates containing peptides at serial dilutions and bacteria were incubated for 24 h at 37 °C without agitation to allow biofilm formation. Unattached bacteria were then washed from plates, and the plates stained with 0.1% CV, followed by absorbance measurements at OD590 using a microplate auto reader. Data are presented as a percentage of the biofilm biomass compared to biofilm formed by untreated bacteria ± the standard error.

in vitro = conditions: pooled CF patient sputum diluted 10-fold with PBS, supernatant, 100 μM peptide, 37 °C
Method: (§1) The peptide stability in CF patient sputum was tested as previously described.[52] Briefly, individual sputum samples from CF patients were pooled and diluted 10-fold with Dulbecco’s phosphate-buffered saline without calcium and magnesium. The suspensions were thoroughly mixed and then centrifuged at 1000 rpm for 10 min. D,L-K6L9 peptides and LL-37 were added to the supernatant to a final concentration of 100 μM, and the mixture was incubated at 37 °C for several time intervals. The reaction was stopped by adding 10 μL of 10% hydrogen chloride (HCl) to the 55 μL mixture. Residual peptide concentrations were determined via RP-HPLC on a Vydac C18 column (Grace Discovery Sciences, Deerfield, IL) using a linear gradient from 20% to 60% ACN in water (both containing 0.1% TFA) for 50 min. Data are presented as a percentage of peptide compared to the mixture without incubation ± standard errors.

CF sputum proteases = assay: in vitro; conditions: human, supernatant of pooled CF patient sputum, diluted 10-fold
Method: as §1

[3] = tested on: P. aeruginosa CF isolates and PAO1; type: cell-based, Pseudomonas aeruginosa; conditions: 10 μM peptide, 1 h, 37 °C
Method: The suspensions were thoroughly mixed, centrifuged at 1000 rpm for 10 min, and filtered with a 0.22 μm filter. Supernatants were stored and used for killing assays and fluorescence microscopy, respectively. Then, 10^6 CFU/mL of P. aeruginosa was added to a 10% diluted sputum supernatant, followed by 10 μM peptides. The mixture was incubated at 37 °C for 1 h and then diluted and plated on freshly made LB agar plates.

mammalian cells = conditions: cited from earlier work
Description: We investigated the antibiofilm and antimicrobial activities of a series of peptides containing nine leucines and six lysines each, with a net charge of +7 (Table 1).

With `CC(C)C[C@H](NC(=O)[C@H](CC(C)C)NC(=O)[C@@H](CCCCN)NC(=O)[C@H](CC(C)C)NC(=O)[C@H](CC(C)C)NC(=O)[C@H](CCCCN)NC(=O)[C@@H](CCCCN)NC(=O)[C@@H](CC(C)C)NC(=O)[C@H](CC(C)C)NC(=O)[C@@H](CCCCN)NC(=O)[C@H](CCCCN)NC(=O)[C@H](CC(C)C)NC(=O)[C@@H](CC(C)C)NC(=O)[C@H](CCCCN)NC(=O)[C@@H](N)CC(C)C)C(N)=O` (stereo in doubt) [Amp1D] as the compound, how does the MIC [1] read?
Its MIC is no more than 3.12 µM.

What about the “inhibition of biofilm formation” value [2] of the same compound?
Its value is roughly 50%.

What about the “degradation in CF sputum” value (in vitro; 6 h, RP-HPLC) of the same compound?
The value was “protected entirely from degradation”.

And the metabolised at 48 h, 100 μM (CF sputum proteases)?
The metabolised at 48 h, 100 μM was roughly 30%.

For `CC[C@H](C)[C@H](NC(=O)[C@H](CCCCN)NC(=O)[C@H](CCC(=O)O)NC(=O)[C@H](CCCCN)NC(=O)[C@H](CO)NC(=O)[C@H](CCCCN)NC(=O)[C@H](CCCNC(=N)N)NC(=O)[C@H](Cc1ccccc1)NC(=O)[C@H](Cc1ccccc1)NC(=O)[C@H](CC(=O)O)NC(=O)CNC(=O)[C@H](CC(C)C)NC(=O)[C@@H](N)CC(C)C)C(=O)NCC(=O)N[C@@H](CCCCN)C(=O)N[C@@H](CCC(=O)O)C(=O)N[C@@H](Cc1ccccc1)C(=O)N[C@@H](CCCCN)C(=O)N[C@@H](CCCNC(=N)N)C(=O)N[C@H](C(=O)N[C@H](C(=O)N[C@@H](CCC(N)=O)C(=O)N[C@@H](CCCNC(=N)N)C(=O)N[C@H](C(=O)N[C@@H](CCCCN)C(=O)N[C@@H](CC(=O)O)C(=O)N[C@@H](Cc1ccccc1)C(=O)N[C@@H](CC(C)C)C(=O)N[C@@H](CCCNC(=N)N)C(=O)N[C@@H](CC(N)=O)C(=O)N[C@@H](CC(C)C)C(=O)N[C@H](C(=O)N1CCC[C@H]1C(=O)N[C@@H](CCCNC(=N)N)C(=O)N[C@H](C(=O)N[C@@H](CCC(=O)O)C(=O)N[C@@H](CO)C(N)=O)[C@@H](C)O)C(C)C)[C@@H](C)CC)C(C)C)[C@@H](C)CC` [LL-37, reference compound], which “degradation in CF sputum” value (in vitro; 30 min, residual peptide by RP-HPLC vs no incubation) is on record?
The value was “fully degraded”.

And the killing rate ([3]; PAO1, 10% mixed CF sputum, 10^6 CFU/mL, colony count vs untreated)?
The killing rate was 11.48%.

What about the killing rate ([3]; control isolate 895 in 895 CF diluted sputum) of the same compound?
The killing rate was 97.57%.

What about the killing rate ([3]; isolate 24, 10% mixed CF sputum, 10^6 CFU/mL, colony count vs untreated) of the same compound?
Its killing rate is 13.23%.

And the killing rate ([3]; isolate 46, 10% mixed CF sputum, 10^6 CFU/mL, colony count vs untreated)?
The killing rate was 11.73%.

And the killing rate ([3]; isolate 82, 10% mixed CF sputum, 10^6 CFU/mL, colony count vs untreated)?
The killing rate was 34.24%.

Which results are given for `CC(C)C[C@H](NC(=O)[C@H](CC(C)C)NC(=O)[C@@H](CC(C)C)NC(=O)[C@@H](CC(C)C)NC(=O)[C@H](CC(C)C)NC(=O)[C@@H](CC(C)C)NC(=O)[C@H](CC(C)C)NC(=O)[C@H](CC(C)C)NC(=O)[C@@H](CCCCN)NC(=O)[C@H](CCCCN)NC(=O)[C@@H](N)CCCCN)C(=O)N[C@@H](CC(C)C)C(=O)N[C@H](CCCCN)C(=O)N[C@@H](CCCCN)C(=O)N[C@@H](CCCCN)C(N)=O` (stereo in doubt) [Seg5D]?
degradation in CF sputum (in vitro; 6 h, RP-HPLC): protected entirely from degradation; metabolised at 48 h, 100 μM (CF sputum proteases): ~30%

Which results are given for `CC(C)C[C@H](NC(=O)[C@H](CC(C)C)NC(=O)[C@H](CCCCN)NC(=O)[C@H](CC(C)C)NC(=O)[C@H](CC(C)C)NC(=O)[C@H](CCCCN)NC(=O)[C@H](CCCCN)NC(=O)[C@H](CC(C)C)NC(=O)[C@H](CC(C)C)NC(=O)[C@H](CCCCN)NC(=O)[C@H](CCCCN)NC(=O)[C@H](CC(C)C)NC(=O)[C@H](CC(C)C)NC(=O)[C@H](CCCCN)NC(=O)[C@@H](N)CC(C)C)C(N)=O` [Amp1L]?
metabolised at 3 h, 100 μM (CF sputum proteases): ~70%; metabolised at 6 h, 100 μM (CF sputum proteases): ~80%; toxicity to mammalian cells (mammalian cells): toxic to mammalian cells

What does the source list for `CC(C)C[C@H](NC(=O)[C@H](CC(C)C)NC(=O)[C@@H](CC(C)C)NC(=O)[C@H](CC(C)C)NC(=O)[C@H](CCCCN)NC(=O)[C@H](CCCCN)NC(=O)[C@@H](CCCCN)NC(=O)[C@@H](CCCCN)NC(=O)[C@H](CCCCN)NC(=O)[C@@H](CCCCN)NC(=O)[C@H](CC(C)C)NC(=O)[C@H](CC(C)C)NC(=O)[C@@H](CC(C)C)NC(=O)[C@H](CC(C)C)NC(=O)[C@@H](N)CC(C)C)C(N)=O` (stereo in doubt) [Seg6D]?
MIC [1]: ≤ 12.5 µM; degradation in CF sputum (in vitro; 6 h, RP-HPLC): protected entirely from degradation; metabolised at 24 h, 100 μM (CF sputum proteases): ~30%; metabolised at 48 h, 100 μM (CF sputum proteases): ~30%
